In US20070043034A1, “Chlorine Ion Uptake Modulators and Uses Thereof” (priority 2005, published 2007):

Legend:
NKCCl = biological target: T1, NKCCl (Rattus norvegicus, UniProt E9PTX9); experiment: Gramicidin perforated patch recording of ECl and Cli in CA1 pyramidal cells of acute hippocampal slices; type: cell-based; conditions: 10 μM bumetanide
T1 construct: gramicidin perforated patch clamped CA1 pyramidal neuron in an acute hippocampal slice from a P5 rat; from tissue; host or cells: acute hippocampal slices of P3-P6 male Sprague-Dawley rats; CA1 pyramidal neurons
T1 sequence (E9PTX9 1-1203): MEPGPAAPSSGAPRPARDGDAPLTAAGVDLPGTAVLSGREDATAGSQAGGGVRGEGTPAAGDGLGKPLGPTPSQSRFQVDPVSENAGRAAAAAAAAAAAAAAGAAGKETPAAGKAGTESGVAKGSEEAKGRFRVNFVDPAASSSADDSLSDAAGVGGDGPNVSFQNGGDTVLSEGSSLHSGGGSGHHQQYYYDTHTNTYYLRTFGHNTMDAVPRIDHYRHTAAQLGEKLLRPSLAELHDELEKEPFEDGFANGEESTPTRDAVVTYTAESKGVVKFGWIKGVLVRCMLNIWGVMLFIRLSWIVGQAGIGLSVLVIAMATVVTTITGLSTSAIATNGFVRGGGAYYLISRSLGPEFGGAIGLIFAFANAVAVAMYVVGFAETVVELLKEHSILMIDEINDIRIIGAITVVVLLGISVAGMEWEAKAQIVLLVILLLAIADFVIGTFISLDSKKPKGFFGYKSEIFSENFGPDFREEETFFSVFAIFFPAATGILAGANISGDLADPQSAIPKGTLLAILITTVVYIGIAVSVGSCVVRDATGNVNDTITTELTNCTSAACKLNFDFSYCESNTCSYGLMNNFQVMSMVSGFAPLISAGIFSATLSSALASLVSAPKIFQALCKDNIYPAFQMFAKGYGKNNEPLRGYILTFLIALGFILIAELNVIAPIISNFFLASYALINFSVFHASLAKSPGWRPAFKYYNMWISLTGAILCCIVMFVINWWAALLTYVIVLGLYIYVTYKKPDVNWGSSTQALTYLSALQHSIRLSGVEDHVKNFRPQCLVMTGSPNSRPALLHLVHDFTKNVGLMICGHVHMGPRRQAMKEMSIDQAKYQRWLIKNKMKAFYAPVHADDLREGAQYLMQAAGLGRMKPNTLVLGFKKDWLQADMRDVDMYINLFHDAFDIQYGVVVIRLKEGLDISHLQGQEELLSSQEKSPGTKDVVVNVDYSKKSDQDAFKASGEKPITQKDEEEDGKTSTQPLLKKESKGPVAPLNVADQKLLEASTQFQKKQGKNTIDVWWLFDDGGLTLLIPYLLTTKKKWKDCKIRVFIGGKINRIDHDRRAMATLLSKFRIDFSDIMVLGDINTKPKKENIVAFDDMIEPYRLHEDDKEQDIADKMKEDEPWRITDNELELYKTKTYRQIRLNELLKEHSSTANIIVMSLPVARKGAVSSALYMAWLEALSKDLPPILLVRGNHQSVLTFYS

hypoxia-induced seizures = experiment: Hypoxia-induced seizures in P10 rats; type: in vivo, rat; conditions: hypoxia 15 min, i.p., Bumetanide 0.15 mg/kg 10 min prior, Phenobarbital 15 mg/kg 30 min prior, versus vehicle
Description: Litters of male Long-Evans hooded rats from Charles River Laboratories (Wilmington, Mass., USA) were used in this study. Each litter was divided into five treatment groups: no hypoxia control, hypoxia/DMSO in PBS, hypoxia/Bumetanide only, hypoxia/Phenobarbital only, and hypoxia/combination of Bumetanide and Phenobarbital. One to two litters were used for each run of the experiment, and each litter was housed together until the weaning age of P21.
Rats at P10 (˜18 to 22 grams) were exposed to global hypoxia for 15 minutes in an airtight chamber into which N2 gas was rapidly infused. The oxygen concentration was maintained at 7% for 8 minutes, 5% for 6 minutes, and 4% for 1 minute before termination of hypoxia, during which the animals were immediately removed from the chamber and exposed to room air. For each animal during hypoxia, a record of the total number of myoclonic seizures and the total number and length of time in seconds of tonic clonic seizures were kept. For analysis purposes, time lengths of each tonic clonic seizure for each animal were pooled to obtain total seizure time. […] The body temperature of all animals was maintained at 34-40° C. on a warming blanket; the temperatures of each animal were also recorded before and after submission to hypoxia. […]

holding current (NKCCl): no change | ECl (NKCCl; P4-6 CA1 pyramidal cells, n=9, control −67.34±3.78 mV): −80.14±4.61 mV | lowering of Cli (NKCCl; n=9, P=0.0006): 37±0.05% | Cli (NKCCl; n=9, control 12.00±1.47 mM): 7.62 ± 1.14 mM
SMILES: CCCCNc1cc(C(=O)O)cc(S(N)(=O)=O)c1Oc1ccccc1 [bumetanide, 3-(aminosulfonyl)-5-(butylamino)-4-phenoxybenzoic acid]
average seizing time (hypoxia-induced seizures): did not significantly reduce
